{"source": "patent EP0341661A2", "about": "“Peptide-drug compositions containing alpha-aminoboronic acid derivatives” (THE DU PONT MERCK PHARMACEUTICAL COMPANY, priority 1988, dated 1989)", "key": {"aminopeptidases [1]": {"tested_on": "aminopeptidases", "assay": "In situ nasal perfusion: degradation of 100 µM leucine enkephalin in the nasal perfusate", "type": "in vivo, Sprague-Dawley rats", "conditions": "for order of inhibition of degradation: 0.1 µM boroleucine, 10 µM bestatin, 100 µM puromycin; for % Leucine Enkephalin Remaining: 0.1 µM inhibitor", "protocol": "In order to evaluate the effectiveness of the α-aminoboronic acid derivative inhibitors of this invention, an animal model was used (according to A. Hussain, J. Furaj, A. Yukihiko and J. E. Truelove, Biochem. Biophys. Res. Com. 133, 923, 1985) to assess the degradation of proteins and peptides in situ and in vivo in situ in the nasal cavity of rats. The method involved the use of Sprague-Dawley rats weighing approximately 300 grams. Each rat was anesthetized with sodium pentobarbitol (50 mg/kg). An incision was made in the neck and the trachea was canulated with PE 240 tubing. For the in situ studies, a second tube, which served to introduce the perfusing solution, was inserted through the esophagus to the posterior part of the nasal cavity. The nasopalatine was closed with an adhesive to prevent drainage of the perfusing solution from the nasal to the oral cavity. For the in vivo in situ studies, the esophagus was canulated using PE 240 tubing closed at one end. The closed end was pushed to the posterior end of the nasal passage and then tied in place. The nasopalatine was closed with an adhesive to prevent drainage of the perfusing solution from the nasal to the oral cavity. The rats were dosed in one nostril with 50 µl of peptide solution in two forms; the control solution had no inhibitor added, the test solution had inhibitor added at concentrations specified in the examples shown below. The dosing solution was 0.1 M phosphate buffer (pH 7.4). At certain time intervals (one rat/time interval), the drug was washed from the nose via the other nostril with 10 ml of 0.1 M phosphate buffer (pH 3.8) using a peristaltic pump. The nasal washing was then placed in a 10 ml volumetric flask and adjusted to 10 ml with the same buffer and analyzed for the peptide by HPLC. The analysis of leucine enkephalin and its major metabolite involved taking aliquots of samples, diluting them with 200 µl of 0.1 M citric acid (pH 2.3) to quench hydrolysis and subjecting the samples to analysis (for in vivo in situ studies, the washings were injected as they were obtained). High Pressure Liquid Chromatography (HPLC) was run on a 4.6 x 250 mm C₈ column. The mobile phase consisted of 0.1 M NaH₂PO₄-H₃PO₄-acetonitrile (916 : 5 : 275) and was delivered at a flow rate of 1.7 ml/min. Detection was by UV at 210 nm. Retention times for leucine enkephalin and its major degradation product, Des-Tyr-leucine enkephalin were 7.3 and 4.8 min., respectively. Data were calculated as % of leucine enkephalin remaining in the nasal perfusate as a function of time, counting the concentration at zero time as 100%. In this example, a 10 ml solution of 0.1 M phosphate buffer solution (pH 7.4) containing 100 µM leucine enkephalin (the peptide) in the absence or presence of 0.1 µM 3-methyl-1(4,4,5,5-tetramethyl-1,3,2-dioxaborolane-2-yl)-1-butamine, trifluoroacetic acid salt (boroleucine) as the inhibitor was perfused nasally in rats as described above. A 10 ml portion of the peptide solution was placed in a water-jacketed container, maintained at 37°C and circulated through the nasal cavity of rats using a peristaltic pump. The perfusing solution was passed through the nasal cavity, out the nostrils, through a funnel, and returned to the water-jacketed container. The perfusate was analyzed by the ANALYTICAL METHOD described above."}, "aminopeptidases [2]": {"tested_on": "aminopeptidases", "assay": "In situ nasal perfusion: degradation of 100 µM leucine enkephalin in the nasal perfusate", "type": "in vivo, Sprague-Dawley rats", "conditions": "10 µM inhibitor"}, "[3]": {"conditions": "in vivo, cited from earlier work"}}}
{"molecule": "CC(C)C[C@H](NC(=O)[C@@H](O)[C@H](N)Cc1ccccc1)C(=O)O", "note": "[Bestatin, bestatin, reference compound]", "values": [{"measurement": "order of inhibition of degradation", "setting": "aminopeptidases [1]", "value": "boroleucine> bestatin> puromycin"}, {"measurement": "% of leucine enkephalin remaining in the nasal perfusate", "setting": "aminopeptidases [1]; 10 µM inhibitor, 0 min", "value": "100.0±0.0", "unit": "%"}, {"measurement": "% of leucine enkephalin remaining in the nasal perfusate", "setting": "aminopeptidases [1]; 10 µM inhibitor, 10 min", "value": "94.7±1.7", "unit": "%"}, {"measurement": "% of leucine enkephalin remaining in the nasal perfusate", "setting": "aminopeptidases [1]; 10 µM inhibitor, 30 min", "value": "86.6±3.8", "unit": "%"}, {"measurement": "% of leucine enkephalin remaining in the nasal perfusate", "setting": "aminopeptidases [1]; 10 µM inhibitor, 45 min", "value": "79.0±5.3", "unit": "%"}, {"measurement": "% of leucine enkephalin remaining in the nasal perfusate", "setting": "aminopeptidases [1]; 10 µM inhibitor, 90 min", "value": "57.3±8.8", "unit": "%"}, {"measurement": "% of leucine enkephalin remaining in the nasal perfusate", "setting": "aminopeptidases [2]; 5 min", "value": "97.3±1.6", "unit": "%"}, {"measurement": "% of leucine enkephalin remaining in the nasal perfusate", "setting": "aminopeptidases [2]; 20 min", "value": "90.0±3.3", "unit": "%"}, {"measurement": "% of leucine enkephalin remaining in the nasal perfusate", "setting": "aminopeptidases [2]; 60 min", "value": "72.3±6.7", "unit": "%"}]}
{"molecule": "CC(N)B1OC(C)(C)C(C)(C)O1.O=C(O)C(F)(F)F", "note": "(stereo not drawn) [boroalanine, α,4,4,5,5-pentamethyl-1,3,2-dioxaborolane-2-methanamine, trifluoroacetic acid salt]", "values": [{"measurement": "% Leucine Enkephalin Remaining", "setting": "aminopeptidases [1]; 0 min", "value": "100.0± 0.0", "unit": "%"}, {"measurement": "% Leucine Enkephalin Remaining", "setting": "aminopeptidases [1]; 5 min", "value": "94.7± 3.0", "unit": "%"}, {"measurement": "% Leucine Enkephalin Remaining", "setting": "aminopeptidases [1]; 10 min", "value": "91.9± 2.1", "unit": "%"}, {"measurement": "% Leucine Enkephalin Remaining", "setting": "aminopeptidases [1]; 20 min", "value": "88.5± 2.2", "unit": "%"}, {"measurement": "% Leucine Enkephalin Remaining", "setting": "aminopeptidases [1]; 30 min", "value": "84.1± 3.1", "unit": "%"}, {"measurement": "% Leucine Enkephalin Remaining", "setting": "aminopeptidases [1]; 45 min", "value": "77.5± 4.4", "unit": "%"}, {"measurement": "% Leucine Enkephalin Remaining", "setting": "aminopeptidases [1]; 60 min", "value": "69.9± 6.7", "unit": "%"}, {"measurement": "% Leucine Enkephalin Remaining", "setting": "aminopeptidases [1]; 90 min", "value": "56.4±12.1", "unit": "%"}]}
{"molecule": "COc1ccc(C[C@H](N)C(=O)N[C@H]2[C@@H](O)[C@H](n3cnc4c(N(C)C)ncnc43)O[C@@H]2CO)cc1", "note": "[Puromycin, puromycin, reference compound]", "values": [{"measurement": "order of inhibition of degradation", "setting": "aminopeptidases [1]", "value": "boroleucine> bestatin> puromycin"}, {"measurement": "% of leucine enkephalin remaining in the nasal perfusate", "setting": "aminopeptidases [1]; 100 µM inhibitor, 0 min", "value": "100.0±0.0", "unit": "%"}, {"measurement": "% of leucine enkephalin remaining in the nasal perfusate", "setting": "aminopeptidases [1]; 100 µM inhibitor, 5 min", "value": "96.7±2.4", "unit": "%"}, {"measurement": "% of leucine enkephalin remaining in the nasal perfusate", "setting": "aminopeptidases [1]; 100 µM inhibitor, 10 min", "value": "91.3±3.4", "unit": "%"}, {"measurement": "% of leucine enkephalin remaining in the nasal perfusate", "setting": "aminopeptidases [1]; 100 µM inhibitor, 20 min", "value": "82.4±4.1", "unit": "%"}, {"measurement": "% of leucine enkephalin remaining in the nasal perfusate", "setting": "aminopeptidases [1]; 100 µM inhibitor, 30 min", "value": "78.5±3.2", "unit": "%"}, {"measurement": "% of leucine enkephalin remaining in the nasal perfusate", "setting": "aminopeptidases [1]; 100 µM inhibitor, 45 min", "value": "73.6±2.2", "unit": "%"}, {"measurement": "% of leucine enkephalin remaining in the nasal perfusate", "setting": "aminopeptidases [1]; 100 µM inhibitor, 60 min", "value": "63.5±5.6", "unit": "%"}, {"measurement": "% of leucine enkephalin remaining in the nasal perfusate", "setting": "aminopeptidases [1]; 100 µM inhibitor, 90 min", "value": "48.9±6.7", "unit": "%"}]}
{"molecule": "CC(C)C(N)B1OC(C)(C)C(C)(C)O1.O=C(O)C(F)(F)F", "note": "(stereo not drawn) [borovaline, 4,4,5,5-tetramethyl-α-(1-methylethyl)-1,3,2-dioxaborolane-2-methanamine, trifluoroacetic acid salt]", "values": [{"measurement": "% Leucine Enkephalin Remaining", "setting": "aminopeptidases [1]; 0 min", "value": "100.0±0.0", "unit": "%"}, {"measurement": "% Leucine Enkephalin Remaining", "setting": "aminopeptidases [1]; 5 min", "value": "96.3±1.9", "unit": "%"}, {"measurement": "% Leucine Enkephalin Remaining", "setting": "aminopeptidases [1]; 10 min", "value": "95.7±1.5", "unit": "%"}, {"measurement": "% Leucine Enkephalin Remaining", "setting": "aminopeptidases [1]; 20 min", "value": "94.8±1.4", "unit": "%"}, {"measurement": "% Leucine Enkephalin Remaining", "setting": "aminopeptidases [1]; 30 min", "value": "91.6±1.6", "unit": "%"}, {"measurement": "% Leucine Enkephalin Remaining", "setting": "aminopeptidases [1]; 45 min", "value": "89.1±2.5", "unit": "%"}, {"measurement": "% Leucine Enkephalin Remaining", "setting": "aminopeptidases [1]; 60 min", "value": "86.2±2.5", "unit": "%"}, {"measurement": "% Leucine Enkephalin Remaining", "setting": "aminopeptidases [1]; 90 min", "value": "78.3±4.3", "unit": "%"}, {"measurement": "comparison of the inhibitory effect of equimolar concentrations", "setting": "aminopeptidases [1]; 0.1 µM of each inhibitor", "value": "superior to boroalanine"}]}
{"molecule": "leuprolide", "values": [{"measurement": "improvement of bioavailability over the oral route (factor)", "setting": "[3]; po", "value": 112, "unit": "times"}, {"measurement": "drug absorbed systemically", "setting": "[3]; sc", "value": "over 65%"}]}
